Results on eight molecules are retold here after patent publication US12552783B2, “Modulators of proteolysis and associated methods of use” (Arvinas Operations, Inc., priority 2018, dated 2026).

The Dmax is the greatest extent of degradation seen.

For the experiment, the target named is KRas (Homo sapiens, UniProt P01116, G12C). The experiment in a line: KRas degradation in NCI-H2030 cells by Western blot, normalized to GAPDH (data of Table 14). The note with it: for Dmax: NCI-H2030. In kind it is cell-based. Set-up: host or cells: NCI-H2030. The method, boiled down: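 After a day without serum, the G12C-homozygous cells received each compound at 0.3, 1 and 3 μM, with VHL-based degraders left for 24 h and other compounds for 72 h. DC50 is the concentration giving half-maximal degradation and DMax the maximal degradation, both taken from KRas levels normalized to GAPDH.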
A general note: Immunoblotting shows a protein as a band on a membrane.

The structures appear in SMILES notation.

Consider `C=CC(=O)N1CCN(c2nc(NCCC(=O)N(C)CCOCCOCCOc3cc(-c4scnc4C)ccc3CNC(=O)[C@@H]3C[C@@H](O)CN3C(=O)[C@H](c3cc(C)no3)C(C)C)nc3c(F)c(-c4c(O)cccc4F)c(Cl)cc23)CC1` (atropisomer, axis not shown) [compound 130, (25,4R)-N-(2-(2-(2-(2-(3-(((S)-4-(4-acryloylpiperazin-1-yl)-6-chloro-8-fluoro-7-(2-fluoro-6-hydroxyphenyl)quinazolin-2-yl)amino)-N-methylpropanamido)ethoxy)ethoxy)ethoxy)-4-(4-methylthiazol-5-yl)benzyl)-4-hydroxy-1-((S)-3-methyl-2-(3-methylisoxazol-5-yl)butanoyl)pyrrolidine-2-carboxamide], for which the greatest degradation seen (Dmax) was no more than 35%. Moreover, the “Percent Degradation at Indicated Concentration (μM)” value (“Percent Degradation” below) (H2030, 0.3 μM) is given as “C (Percent Degradation: C ≤ 35)”. The “Percent Degradation” value (H2030, 1 μM) was “C (Percent Degradation: C ≤ 35)”. Besides, the “Percent Degradation” value (H2030, 3 μM) is reported as “C (Percent Degradation: C ≤ 35)”.
For the molecule `C=CC(=O)N1CCN(c2nc(NCCC(=O)N(C)CCOCCOc3ccc(-c4csc([C@@H]5CCCN5C(=O)[C@@H](NC(=O)[C@H](C)NC)C5CCCCC5)n4)c4ccccc34)nc3c(F)c(-c4cc(O)cc5ccccc45)c(Cl)cc23)CC1` [compound 271, 3-((4-(4-acryloylpiperazin-1-yl)-6-chloro-8-fluoro-7-(3-hydroxynaphthalen-1-yl)quinazolin-2-yl)amino)-N-(2-(2-((4-(2-((S)-1-((S)-2-cyclohexyl-2-((S)-2-(methylamino)propan-amido)acetyl)pyrrolidin-2-yl)thiazol-4-yl)naphthalen-1-yl)oxy)ethoxy)ethyl)-N-methylpropanamide], the Dmax is no more than 35%. For the same molecule, under “H2030, 0.3 μM”, the “Percent Degradation” value is on record as “C (Percent Degradation: C ≤ 35)”. The “Percent Degradation” value (H2030, 1 μM) is given as “C (Percent Degradation: C ≤ 35)”. Further, the “Percent Degradation” value (H2030, 3 μM) is reported as “C (Percent Degradation: C ≤ 35)”.
Consider `C=CC(=O)N1CCN(c2nc(Nc3ccc(OCCOCCOCCOCCOCC(=O)N[C@H](C(=O)N4C[C@H](O)C[C@H]4C(=O)N[C@@H](C)c4ccc(-c5scnc5C)cc4)C(C)(C)C)cc3)nc3c(F)c(-c4cc(O)cc5ccccc45)c(Cl)cc23)CC1` [compound 484], for which the Dmax was no more than 35%. Further, the “Percent Degradation” value (H2030, 0.3 μM) was “C (Percent Degradation: C ≤ 35)”. In addition, the “Percent Degradation” value (H2030, 1 μM) is given as “C (Percent Degradation: C ≤ 35)”. For the same molecule, under “H2030, 3 μM”, the “Percent Degradation” value was “C (Percent Degradation: C ≤ 35)”.
For the molecule `C=CC(=O)N1CCN(c2nc(O[C@H](C)CN3CCC(OCCOCCOCCNc4cccc5c4C(=O)N(C4CCC(=O)NC4=O)C5=O)CC3)nc3c2CCN(c2cc(O)cc4ccccc24)C3)CC1` (stereo partly drawn) [compound 413, 4-((2-(2-(2-((1-((R)-2-((4-(4-acryloylpiperazin-1-yl)-7-(3-hydroxynaphthalen-1-yl)-5,6,7,8-tetrahydropyrido[3,4-d]pyrimidin-2-yl)oxy)propyl)piperidin-4-yl)oxy)ethoxy)ethoxy)ethyl)amino)-2-(2,6-dioxopiperidin-3-yl)isoindoline-1,3-dione], the “Percent Degradation” value (H2030 cells, 0.3 μM) is reported as “C (Percent Degradation: C ≤ 35)”; the “Percent Degradation” value (H2030 cells, 1 μM) is “C (Percent Degradation: C ≤ 35)”; the “Percent Degradation” value (H2030 cells, 3 μM) is “C (Percent Degradation: C ≤ 35)”.
For the molecule `Cc1ncsc1-c1ccc([C@H](C)NC(=O)[C@@H]2C[C@@H](O)CN2C(=O)[C@@H](NC(=O)COCCOCCOCCOCCN(C)C(=O)CCNc2nc(N3CCN(C(=O)C(O)O)CC3)c3cc(Cl)c(-c4c(O)cccc4F)c(F)c3n2)C(C)(C)C)cc1` (atropisomer, axis not shown) [compound 240, (2S,4R)-1-((S)-2-(tert-butyl)-21-(((S)-6-chloro-4-(4-(2,2-dihydroxyacetyl)piperazin-1-yl)-8-fluoro-7-(2-fluoro-6-hydroxyphenyl)quinazolin-2-yl)amino)-18-methyl-4,19-dioxo-6,9,12,15-tetraoxa-3,18-diazahenicosanoyl)-4-hydroxy-N-((S)-1-(4-(4-methylthiazol-5-yl)phenyl)ethyl)pyrrolidine-2-carboxamide], the “Percent Degradation” value (H2030 cells, 0.3 μM) is “C (Percent Degradation: C ≤ 35)”; the “Percent Degradation” value (H2030 cells, 1 μM) is on record as “C (Percent Degradation: C ≤ 35)”; the “Percent Degradation” value (H2030 cells, 3 μM) is “C (Percent Degradation: C ≤ 35)”.
Take `C=CC(=O)N1CCN(c2nc(NCCC(=O)N(C)CCOCC(=O)N[C@H](C(=O)N3C[C@H](O)C[C@H]3C(=O)N[C@@H](C)c3ccc(-c4scnc4C)cc3)C(C)(C)C)nc3c(F)c(-c4c(O)cccc4F)c(Cl)cc23)CC1` (atropisomer, axis not shown) [compound 205, (2S,4R)-1-((S)-2-(2-(2-(3-(((S)-4-(4-acryloylpiperazin-1-yl)-6-chloro-8-fluoro-7-(2-fluoro-6-hydroxyphenyl)quinazolin-2-yl)amino)-N-methylpropanamido)ethoxy)acetamido)-3,3-dimethylbutanoyl)-4-hydroxy-N-((S)-1-(4-(4-methylthiazol-5-yl)phenyl)ethyl)pyrrolidine-2-carboxamide]: the “Percent Degradation” value (H2030, 3 μM) was “C (Percent Degradation: C ≤ 35)”.
As to `C=CC(=O)N1CCN(c2nc(NCCC(=O)N(C)CCOc3cc(-c4scnc4C)ccc3CNC(=O)[C@@H]3C[C@@H](O)CN3C(=O)[C@H](c3cc(C)no3)C(C)C)nc3c(F)c(-c4c(O)cccc4F)c(Cl)cc23)CC1` (atropisomer, axis not shown) [compound 127, (25,4R)-N-(2-(2-(3-(((S)-4-(4-acryloylpiperazin-1-yl)-6-chloro-8-fluoro-7-(2-fluoro-6-hydroxyphenyl)quinazolin-2-yl)amino)-N-methylpropanamido)ethoxy)-4-(4-methylthiazol-5-yl)benzyl)-4-hydroxy-1-((S)-3-methyl-2-(3-methylisoxazol-5-yl)butanoyl)pyrrolidine-2-carboxamide], the Dmax was no more than 35%. The “Percent Degradation” value (H2030, 0.3 μM) was “C (Percent Degradation: C ≤ 35)”. The “Percent Degradation” value (H2030, 1 μM) is listed as “C (Percent Degradation: C ≤ 35)”. For the same molecule, the “Percent Degradation” value (H2030, 3 μM) is “C (Percent Degradation: C ≤ 35)”.
Regarding `C=CC(=O)N1CCN(c2nc(NCCC(=O)N(C)CCOCCOCCOCCOc3ccc(-c4csc([C@@H]5CCCN5C(=O)[C@@H](NC(=O)[C@H](C)NC)C5CCCCC5)n4)c4ccccc34)nc3c(F)c(-c4c(O)cccc4F)c(Cl)cc23)CC1` (atropisomer, axis not shown) [compound 278, 3-((4-(4-acryloylpiperazin-1-yl)-6-chloro-8-fluoro-7-((S)-2-fluoro-6-hydroxyphenyl)quinazolin-2-yl)amino)-N-(2-(2-(2-(2-((4-(2-((S)-1-((S)-2-cyclohexyl-2-((S)-2-(methylamino)propan-amido)acetyl)pyrrolidin-2-yl)thiazol-4-yl)naphthalen-1-yl)oxy)ethoxy)ethoxy)eth-oxy)ethyl)-N-methylpropanamide], the Dmax is no more than 35%. Also, the “Percent Degradation” value (H2030, 0.3 μM) is listed as “C (Percent Degradation: C ≤ 35)”. Also, under “H2030, 1 μM”, the “Percent Degradation” value is listed as “C (Percent Degradation: C ≤ 35)”. In addition, the “Percent Degradation” value (H2030, 3 μM) is listed as “C (Percent Degradation: C ≤ 35)”.
